In US20110039809A1 (priority 2008, published 2011):

How the values were obtained:
deoxypyridinoline (DPD) = test: Clinical trial: bone resorption marker deoxypyridinoline (DPD), urine marker; assay type: in vivo, human; conditions: for DPD, GLM least square mean after 4 months: daily 20 μg or weekly 140 μg oral, adjusted for baseline, age, body mass index, postmenopausal women
Description: (§1) Each group included five subjects.
(§2) Equimolar quantities of both substances were investigated.
(§3) Each dosage was consumed orally at breakfast.
(§4) Treatment duration was 4 months.

[1] = test system: bone-specific alkaline phosphatase (BAP); test: Clinical trial: bone-specific alkaline phosphatase (BAP), serum marker; assay type: in vivo, human; conditions: for BAP, GLM least square mean after 4 months: daily 20 μg or weekly 140 μg oral, adjusted for baseline, age, body mass index, postmenopausal women
Description: as §1, §2, §3, §4

[2] = Clinical trial: plasma 25-OH D after single oral bolus (pharmacokinetics); conditions: single oral dose 140 μg of each active
Description: Subjects were randomly assigned to one of […] treatment groups (i.e., daily, weekly, bolus as single dose, and bolus as combination dose). Each group included five subjects. They are followed for four months in Zürich, Switzerland during the winter.
Equimolar quantities of both substances were investigated. The regimen was based on 20 μg/day (or its equivalent on a weekly basis) of 25-OH D3.
Each dosage was consumed orally at breakfast. The duration of the study was four months for the “Daily” and “Weekly” groups. Subjects enrolled in the “Bolus” group consumed orally a single dosage at the second study visit.
Plasma concentrations of 25-OH D3 (e.g., peak and steady state) were determined by obtaining samples from the subjects at various times after the dosage was ingested. […] The assessments continued on Monday of Weeks 3, 5, 7, 9, 11, 13 and 15.

[3] = cited from earlier work
[4] = daily 20 μg or weekly 140 μg, 4 months, repeated measurement analysis over 13 visits
[5] = daily or weekly treatment, identical dosages, 4 months

Molecule	DPD, GLM least square mean after 4 months (deoxypyridinoline (DPD)) [nmol/mmol creatine]	BAP, GLM least square mean after 4 months [1] [IU/L]	Time span with increase in plasma 25-OH D levels by at least 30 nmol/L [2]	other results
C=C1CC[C@H](O)C/C1=C/C=C1\CCC[C@]2(C)[C@@H]([C@H](C)CCCC(C)(C)O)CC[C@@H]12 [25-OH D3, 25-hydroxyvitamin D3]	8.2	74.7	4 to 49 h	DPD change vs. Daily/weekly Vitamin D3 (deoxypyridinoline (DPD); [4]): −17.0%; Reduction of DPD versus Vitamin D3 (deoxypyridinoline (DPD); [5]): 17.0%; BAP change vs. Daily/weekly Vitamin D3 [1, 4]: −2.4%; Reduction of BAP versus Vitamin D3 [1, 5]: 2.4%
25-hydroxyvitamin D	–	–	–	Blood concentration above which hypercalcemia may occur ([3]; in vivo): greater than 375 nmol/L
C=C1CC[C@H](O)C/C1=C/C=C1\CCC[C@]2(C)[C@@H]([C@H](C)CCCC(C)C)CC[C@@H]12 [Vitamin D3, cholecalciferol]	9.8	76.5	no increase of that magnitude was observed	–
Vitamin D	–	–	–	Blood concentration of 25-hydroxyvitamin D after ingestion of the safe upper level as dietary supplement ([3]; 250 μg/day vitamin D): about 200 nmol/L
